Test results reported in patent US20240131027A1, “PHARMACEUTICAL COMPOSITION COMPRISING NOVEL SD911 COMPOUND AS ACTIVE INGREDIENT FOR PREVENTION OR TREATMENT OF TRANSPLANT REJECTION” (THE CATHOLIC UNIVERSITY OF KOREA INDUSTRY-ACADEMIC …, priority 2021, published 2024).

How the values were obtained:
[1] = system: immune cells isolated from the spleens of normal C57/BL6 mice; experiment: Suppression of SDF1-induced migration of spleen immune cells in trans wells; format: cell-based; settings: SD911 20 μM; SDF1 20 ng/ml in lower compartment; FIGS. 1A and 1B
Protocol: The present inventors screened a novel compound SD911 by using activity inhibition analysis of inflammatory cytokines in immune cells of a sphingosin 1-phosphate lyase (SPL) inhibitor, and tried to confirm an immune cell migration inhibitory effect of the screened SD911. Specifically, single cells (immune cells) were isolated from the spleens of normal C57/BL6 mice, and the isolated immune cells were cultured in […] trans wells (upper compartment). For migration of the cultured immune cells, stromal cell-derived factor 1 (SDF1) was treated at a concentration of 20 ng/ml to stimulate the lower compartment. The immune cells moved to the lower compartment by stromal cell-derived factor 1 (SDF1), and at this time, whether the migration was inhibited by SD911 was analyzed.

[2] = system: allogenic skin transplantation animal model; experiment: Skin transplant viability in allogenic skin transplantation animal model; format: in vivo; settings: 200 μg/mice
From the text: (§1) In order to confirm A therapeutic effect of SD911 of the present invention on transplantation rejection, an allogenic skin transplantation animal model was used. Specifically, as the allogenic skin transplantation animal model, the tail skins of male donor […] mice (Orient Bio Inc.) were exfoliated and transplanted onto the back skins of male recipient BALB/c mice (Orient Bio Inc.). One day before transplant, the recipient mice were divided into two groups, a control group (Saline group) administered intraperitoneally with physiological saline, and an experimental group (SD911 group) administered with SD911 at a concentration of 200 μg/mice.
The skin changes of the control group or the experimental group (SD911 group) treated with SD911 at a concentration of 200 μg/mice were observed daily, and the viability was calculated by calculating the rejection when scab formation or skin atrophy of 70% or more occurred on the transplanted skin. A drug administration schedule was illustrated in FIG. 2A.

[3] = system: T cell subtypes (Th1, Th2, Th17, Treg); experiment: T cell subtype analysis by flow cytometry of spleen immune cells in skin transplantation model; format: in vivo; settings: 200 μg/mice, spleen after 5 days, compared to control group
From the text: as §1
Some of the recipient mice that had undergone the skin transplant were humanely sacrificed after 5 days, the spleens were extracted, and immune cells were isolated from the spleens. In order to analyze T cell subtypes in the isolated immune cells, flow cytometry was performed, and to identify pro-inflammatory T cells, the number of CD4+, IFN+, IL4+ and IL17+ positive cells was analyzed. In addition, regulatory T cells (Treg) were identified as CD4+CD25+Foxp3+ positive cells.

[4] = system: human leukocyte antigen (HLA); experiment: HLA inhibition in IFNγ-treated kidney organoids (in vitro rejection model); format: cell-based; settings: 50 μM SD911; kidney organoids from WTC-11 iPSC treated with IFNγ; FIG. 4
Protocol: (§2) WTC-11 cells, standard normal human induced pluripotent stem cells (iPSC) were differentiated into kidney organoids and treated with IFNγ, a cytokine known to induce transplantation rejection to construct an in vitro rejection model increasing human leukocyte antigen (HLA). Thereafter, the constructed kidney organoids were treated with 50 μM of SD911.

kidney organoids = experiment: Flow cytometry of nephron marker double positive cells in cytokine-treated kidney organoids; format: cell-based, human; settings: SD911 50 μg/mL; TNF-α and INFγ treated kidney organoids; FIGS. 5A to 5F
Protocol: as §2
In the kidney organoids prepared in Example 3-1, when treated with the cytokines TNF-α and INFγ and when treated with SD911 at a concentration of 50 μg/mL, changes in cell patterns were analyzed by flow cytometry. Specifically, the patterns of nephron markers PODXL, LTL, ECAD and double positive cells in kidney organoids were analyzed.

[5] = system: kidney transplantation rejection model; experiment: Cell infiltration and kidney damage (H&E) in kidney transplantation rejection model; format: in vivo; settings: 300 μg/mice, compared with the vehicle group, FIGS. 8A and 8B
Protocol: In order to produce a kidney transplantation rejection model, peripheral blood mononuclear cells (PBMCs) derived from transplantation rejection patients (kidney transplantation rejection patients) were intravascularly injected at a cell concentration of 5×10^6/mice, and then after 3 weeks, engraftment of transplantation rejection patient cells in the blood was confirmed, and a kidney transplantation rejection model was constructed. As a control group, normal human PBMCs were injected (FIG. 6). At 3 weeks after PBMC administration to the kidney transplantation rejection model prepared in Example 4-1, the mice were treated with physiological saline (vehicle) and SD911 (300 μg/mice) and sacrificed at 4 weeks and then the kidneys of the mice were extracted.

[6] = system: CD4+T (CD4+), subtype of human immune cells; experiment: CD4 positive cell infiltration in renal tissue by immunohistochemical staining, kidney transplantation rejection model; format: in vivo; settings: 300 μg/mice, group injected with PBMCs of patients with kidney transplantation rejection, FIGS. 9A and 9B
Protocol: (§3) In order to produce a kidney transplantation rejection model, peripheral blood mononuclear cells (PBMCs) derived from transplantation rejection patients (kidney transplantation rejection patients) were intravascularly injected at a cell concentration of 5×10^6/mice, and then after 3 weeks, engraftment of transplantation rejection patient cells in the blood was confirmed, and a kidney transplantation rejection model was constructed. As a control group, normal human PBMCs were injected (FIG. 6).
(§4) At 3 weeks after PBMC administration to the kidney transplantation rejection model prepared in Example 4-1, the mice were treated with physiological saline (vehicle) and SD911 (300 μg/mice) and sacrificed at 4 weeks and then the kidneys of the mice were extracted.
Immunohistochemical staining was performed to confirm whether CD4+T (CD4+), subtype of human immune cells, has been infiltrated in the renal tissue extracted in Example 4-2. The extracted tissue was fixed with formalin, and then embedded in paraffin to generate slices with a thickness of 5 μm. In order to observe immune cells in the tissue, immunohistochemical analysis was performed by reacting with a human CD4 antibody on the slice slide.

IL-17 = IL-17 positive cell infiltration in renal tissue by immunohistochemical staining, kidney transplantation rejection model; format: in vivo; settings: 300 μg/mice, group injected with PBMCs of patients with kidney transplantation rejection, FIGS. 10A and 10B
Protocol: as §3, §4
Immunohistochemical staining was performed to confirm whether IL-17, an inflammatory cytokine, has been infiltrated into the renal tissue extracted in Example 4-2. The extracted tissue was fixed with formalin, and then embedded in paraffin to generate slices with a thickness of 5 μm. In order to observe immune cells in the tissue, immunohistochemical analysis was performed by reacting with a human IL-17 antibody on the slice slide.

Structure (SMILES): C[C@@H]1CN(c2nnc(Oc3ccccc3)c3ccccc23)CCN1c1ccc(C#N)cn1 [SD911, 6-((R)-2-methyl-4-(1-phenoxyphthalazin-4-yl)piperazin-1-yl)pyridine-3-carbonitrile]
- migration of immune cells induced by SDF1 [1]: blocked
- viability of the transplanted skin ([2]; compared to control (Saline) group, FIG. 2B): significantly increased
- survival time of the transplanted skin ([2]; compared to control group, FIG. 2C): significantly increased
- number of Th1 cells ([3]; FIG. 3A): significantly decreased
- number of Th2 cells ([3]; FIG. 3B): significantly decreased
- number of Th17 cells ([3]; FIG. 3C): significantly decreased
- Treg (CD4+CD25+Foxp3+ positive cells) ([3]; FIG. 3D): increased
- HLA increased by IFNγ [4]: suppressed
- positive cell ratio of the nephron marker (PODXL, LTL, ECAD double positive cells) (kidney organoids): significantly decreased
- kidney damage [5]: suppressed
- human PBMC infiltration ([5]; glomerulus): suppressed
- infiltration of CD4-positive cells [6]: significantly reduced
- infiltration of IL-17-positive cells (IL-17): significantly reduced
